Values quoted from earlier work, collected in US11643424B2, “Cardiopathy-reducing phosphodiester lipids” (Signpath Pharma, Inc., priority 2018, dated 2023).

Tested on: K+ current
Details: cited from earlier work

Compound: CCCCc1oc2ccc(NS(C)(=O)=O)cc2c1C(=O)c1ccc(OCCCN(CCCC)CCCC)cc1 [Dronedarone]
- reduction of K+ current: 69%
